This is an account of results in paper PMC5120670 (European journal of medicinal chemistry, 2016).

Data set [1] deals with T. brucei (bloodstream form strain 427). Briefly: T. brucei growth inhibition assay. It is filed as cell-based, Trypanosoma brucei. Conditions: for cellular activity improvement compared to 3: relative to compound 3.
The target of data set [2] is T1, T. brucei methionyl-tRNA synthetase (TbMetRS) (Trypanosoma brucei brucei, UniProt Q38C91).
T1 sequence (Q38C91 1-773): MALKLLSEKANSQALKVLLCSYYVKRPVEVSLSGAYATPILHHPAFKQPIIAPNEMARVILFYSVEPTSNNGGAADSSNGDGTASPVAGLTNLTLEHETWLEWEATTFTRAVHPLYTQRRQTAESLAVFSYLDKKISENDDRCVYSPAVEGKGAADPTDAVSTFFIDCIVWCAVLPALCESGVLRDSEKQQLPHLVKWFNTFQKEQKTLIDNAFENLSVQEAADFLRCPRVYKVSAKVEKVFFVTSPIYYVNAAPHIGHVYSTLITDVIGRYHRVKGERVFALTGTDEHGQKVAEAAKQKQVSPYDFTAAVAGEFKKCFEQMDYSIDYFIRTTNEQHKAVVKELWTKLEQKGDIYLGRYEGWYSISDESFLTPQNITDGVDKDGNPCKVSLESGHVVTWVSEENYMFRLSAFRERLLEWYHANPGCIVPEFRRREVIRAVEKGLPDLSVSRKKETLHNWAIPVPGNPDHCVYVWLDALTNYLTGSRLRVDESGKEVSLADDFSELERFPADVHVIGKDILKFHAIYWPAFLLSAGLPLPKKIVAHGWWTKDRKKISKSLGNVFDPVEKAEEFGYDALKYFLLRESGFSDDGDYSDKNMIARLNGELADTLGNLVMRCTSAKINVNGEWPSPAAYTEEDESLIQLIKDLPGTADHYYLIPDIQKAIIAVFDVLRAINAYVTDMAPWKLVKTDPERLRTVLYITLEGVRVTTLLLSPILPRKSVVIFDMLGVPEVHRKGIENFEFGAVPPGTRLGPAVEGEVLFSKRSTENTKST
Briefly: Enzyme inhibition assay. It is filed as biochemical.

Data set [3] in a line: Distribution of compounds between mouse plasma and brain. Conditions: mice, 5 mg/kg IP, 60 min after injection. It is filed as in vivo.
The next data set in a line: PK studies in mice. The format is in vivo. Particulars: for AUC: mice, oral administration at 50 mg/kg.
Data set [4] relates to hepatocellular carcinoma cell line (Hep G2). Briefly: Mammalian cell growth inhibition assay, Hep G2. The format is cell-based. Particulars: Homo sapiens, HepG2, 48 h, read-out: Hep G2 EC50.
Data set [5] relates to human lymphoblast cell line (CRL-8155). Briefly: Mammalian cell growth inhibition assay, CRL-8155.

Take `Clc1cc(Cl)cc(CCN2CCCC(c3nc4nc(Cl)ccc4[nH]3)C2)c1` (stereo not drawn) [Compound 10, 5-chloro-2-(1-(3,5-dichlorophenethyl)piperidin-3-yl)-1H-imidazo[4,5-b]pyridine]: in data set [1] (relative to compound 6), the “decreased potency compared to 6” value was “around 3 fold”.
In turn, `O=C(Cc1cc(Cl)cc(Cl)c1)N1CCCC(c2nc3nc(Cl)ccc3[nH]2)C1` (stereo not drawn) [Compound 7, 1-(3-(5-chloro-1H-imidazo[4,5-b]pyridin-2-yl)piperidin-1-yl)-2-(3,5-dichlorophenyl)ethanone] had an IC50 in data set [2] of less than 50 nM. Besides, the “cellular activity improvement compared to 3” value in data set [1] is listed as “approximately 5 fold”.
`Clc1cc(Cl)cc(CNC2CCCC(c3nc4nc(Cl)ccc4[nH]3)C2)c1` (stereo not drawn) [Compound 12, 3-(5-chloro-1H-imidazo[4,5-b]pyridin-2-yl)-N-(3,5-dichlorobenzyl) cyclohexanamine]: the “lower EC50 compared to 6” value in data set [1] (relative to compound 6) worked out at 4 fold.
Take `Clc1cc(Cl)cc(CN[C@H]2CCCN(c3nc4nc(Cl)ccc4[nH]3)C2)c1` [Compound 16, (S)-1-(5-chloro-1H-imidazo[4,5-b]pyridin-2-yl)-N-(3,5-dichlorobenzyl) piperidin-3-amine]: in data set [3], the brain levels result was “nearly undetectable”. In the data set “PK studies in mice”, this molecule came in with an AUC of 6223 min*µ mol/L. This molecule also displayed an IC50 in data set [2] of less than 50 nM. In addition, the “lower EC50 compared to R-isomer 15” value in data set [1] (relative to compound 15) was greater than 25 fold.
With `O=C(Cc1cc(Cl)cc(Cl)c1)N1CCCC(c2nc3cc(Cl)ccc3[nH]2)C1` (stereo not drawn) [Compound 6, 1-(3-(5-chloro-1H-benzo[d]imidazol-2-yl)piperidin-1-yl)-2-(3,5-dichlorophenyl) ethanone], the “cellular activity improvement compared to 3” value in data set [1] was “approximately 5 fold”.
On to `Clc1cc(Cl)cc(CNC2CCCN(c3nc4nc(Cl)ccc4[nH]3)C2)c1` (stereo not drawn) [Compound 14, 1-(5-chloro-1H-imidazo[4,5-b]pyridin-2-yl)-N-(3,5-dichlorobenzyl)piperidin-3-amine], for which, in data set [2], the IC50 is less than 50 nM. The “lower EC50 compared to compound 12” value in data set [1] (relative to compound 12) is recorded as ~ 4 fold.
As to `CN(CCNCc1cc(Cl)cc(Cl)c1)c1nc2nc(Cl)ccc2[nH]1` [Compound 31, N1-(5-chloro-1H-imidazo[4,5-b]pyridin-2-yl)-N2-(3,5-dichlorobenzyl)-N1-methylethane-1,2-diamine], the EC50 in data set [4] was found to be 39200 nM; in data set [5] (Homo sapiens, CRL8155, 48 h, read-out: CRL-8155 EC50), 22600 nM; in data set [1] (Trypanosoma brucei, 48 h), 22 nM. Also, the AUC in “PK studies in mice” is 952 min*µ mol/L. Besides, in the data set “PK studies in mice” (mouse, whole blood, po, 50 mg/kg), the peak concentration (Cmax) stood at 9.7 µM. Further, the selectivity index in data set [5] (mammalian cells versus T. brucei) worked out at 1027. This molecule gave an IC50 in data set [2] of less than 50 nM. Further, in data set [1] (relative to compound 29), the “lower EC50 compared to compound 29” value is ~ 3 fold.
In data set [2], `Clc1cc(Cl)cc(CN[C@H]2CCN(c3nc4ccc(Cl)nc4[nH]3)C2)c1` [Compound 24, (S)-1-(5-chloro-3H-imidazo[4,5-b]pyridin-2-yl)-N-(3,5-dichlorobenzyl) pyrrolidin-3-amine] had an IC50 of less than 50 nM. Further, the “more potent than the R-isomer 23” value in data set [1] (relative to compound 23) is on record as ~ 6 fold.

The term IC50 denotes the concentration at which inhibition is half-maximal. As a reminder, the EC50 is the concentration at which the effect is half-maximal. By Cmax is commonly meant the maximum level reached in the sampled fluid or tissue.
